Reference: ChEMBL document CHEMBL1201862, “PubChem BioAssay data set” (2004)
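Five concentrations, 48 hours, 96-well plates. GI50 marks 50% less growth.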 The source made the active and inactive calls. Rule as the data show it: active = GI50 up to about 1.1 µM and inactive = higher.

How the values were obtained:
Test in all cases: NCI anticancer screen, dose series, 48 h
[1] = tested on: SN12C
[2] = tested on: Malme-3M
[3] = tested on: OVCAR-4
[4] = tested on: KM12
[5] = tested on: HL-60
[6] = tested on: SF-268
[7] = tested on: HOP-92
[8] = tested on: SK-OV-3
[9] = tested on: U-251
[10] = tested on: SF-295
[11] = tested on: COLO 205
[12] = tested on: NCI-H522
[13] = tested on: A549
[14] = tested on: SR
[15] = tested on: SNB-75
[16] = tested on: RXF 393
[17] = tested on: SK-MEL-5

| SMILES | GI50 [1] | GI50 [2] | GI50 [3] | GI50 [4] | GI50 [5] | GI50 [6] | GI50 [7] | GI50 [8] | GI50 [9] | GI50 [10] | GI50 [11] | GI50 [12] | GI50 [13] | GI50 [14] | GI50 [15] | GI50 [16] | GI50 [17] |
| --- | --- | --- | --- | --- | --- | --- | --- | --- | --- | --- | --- | --- | --- | --- | --- | --- | --- |
| Cc1cc(Cl)ccc1NC(=O)CCCC(=O)C(C(=O)c1ccccc1)c1ccccc1 (configuration not stated) | > 100 µM (inactive) | > 100 µM (inactive) | > 100 µM (inactive) | > 100 µM (inactive) | > 100 µM (inactive) | > 100 µM (inactive) | > 100 µM (inactive) | > 100 µM (inactive) | > 100 µM (inactive) | > 100 µM (inactive) | > 100 µM (inactive) | > 100 µM (inactive) |  |  |  |  |  |
| COC1(OC)CCC2(C)OC(c3ccccc3)C1O2 (configuration not stated) | > 100 µM (inactive) | > 100 µM (inactive) | > 100 µM (inactive) | > 100 µM (inactive) | > 100 µM (inactive) | > 100 µM (inactive) |  | > 100 µM (inactive) | > 100 µM (inactive) | > 100 µM (inactive) | > 100 µM (inactive) | > 100 µM (inactive) | > 100 µM (inactive) | > 100 µM (inactive) | > 100 µM (inactive) | > 100 µM (inactive) |  |
| O=P(c1ccccc1)(c1ccccc1)C1CC=C(c2ccccc2)C2(CCCC2)C1 (configuration not stated) | 59.7 µM (inactive) | 34.8 µM (inactive) | 29.6 µM (inactive) | 40.4 µM (inactive) | 21.6 µM (inactive) | 90.4 µM (inactive) | 12.5 µM (inactive) | > 100 µM (inactive) | 94 µM (inactive) | 72.3 µM (inactive) | 22.8 µM (inactive) | 8.79 µM (inactive) | 40.3 µM (inactive) |  | 30.7 µM (inactive) | 9.23 µM (inactive) | 71.8 µM (inactive) |
| O=C(O)CCC(NC(=O)c1ccc(Nc2cnc3cc(C(F)(F)F)ccc3n2)cc1)C(=O)O (configuration not stated) | > 100 µM (inactive) | > 100 µM (inactive) | > 100 µM (inactive) | > 100 µM (inactive) | > 100 µM (inactive) | > 100 µM (inactive) | > 100 µM (inactive) | > 100 µM (inactive) | > 100 µM (inactive) | > 100 µM (inactive) | > 100 µM (inactive) | > 100 µM (inactive) | > 100 µM (inactive) |  | > 35.6 µM (inactive) | > 100 µM (inactive) | > 100 µM (inactive) |
| O=c1ccc2ccccc2o1 [COUMARIN] | > 100 µM (inactive) | > 100 µM (inactive) | > 100 µM (inactive) | > 100 µM (inactive) | > 100 µM (inactive) | > 100 µM (inactive) | > 100 µM (inactive) | > 100 µM (inactive) | > 100 µM (inactive) | > 100 µM (inactive) | > 100 µM (inactive) | > 100 µM (inactive) | > 100 µM (inactive) |  | > 100 µM (inactive) | > 100 µM (inactive) |  |
| CC12CCC3C(CCC4(O)C=CCCC34C=O)C1(O)CC(O)C2c1ccc(=O)oc1 (configuration not stated) | 0.0519 µM (active) | 0.0521 µM (active) | 0.0611 µM (active) | 0.0792 µM (active) | 0.0665 µM (active) | < 0.05 µM (active) | 0.105 µM (active) | 0.109 µM (active) | 0.08 µM (active) | 0.0551 µM (active) | 0.113 µM (active) | < 0.05 µM (active) | 0.0504 µM (active) |  | 0.0713 µM (active) | < 0.05 µM (active) | 0.0565 µM (active) |
| CC1CCCP(=O)(c2ccccc2)CC1 (configuration not stated) | > 100 µM (inactive) | > 100 µM (inactive) | > 100 µM (inactive) | > 100 µM (inactive) |  | > 100 µM (inactive) |  | > 100 µM (inactive) | > 100 µM (inactive) | > 100 µM (inactive) | > 100 µM (inactive) |  | > 100 µM (inactive) |  | > 100 µM (inactive) | > 100 µM (inactive) | > 100 µM (inactive) |
| CC1=NN(C(=O)c2ccc(Cl)cc2)C(=O)/C1=C/c1cccc([N+](=O)[O-])c1 | > 100 µM (inactive) | > 100 µM (inactive) | > 100 µM (inactive) | > 100 µM (inactive) | > 100 µM (inactive) | > 100 µM (inactive) | > 100 µM (inactive) | > 100 µM (inactive) | > 100 µM (inactive) | > 100 µM (inactive) | > 100 µM (inactive) | > 100 µM (inactive) | > 100 µM (inactive) |  |  | > 100 µM (inactive) | > 100 µM (inactive) |
| O=C1c2cccc3c2C(=O)c2c(cccc21)OCCOCCOCCOCCO3 | > 100 µM (inactive) | > 100 µM (inactive) | 74.6 µM (inactive) |  | 74.5 µM (inactive) | > 100 µM (inactive) |  | > 100 µM (inactive) | > 100 µM (inactive) | > 100 µM (inactive) |  | > 100 µM (inactive) | > 100 µM (inactive) | 14.2 µM (inactive) | 40.9 µM (inactive) | 78.2 µM (inactive) | 75.7 µM (inactive) |
